“Also recorded” adds a separate entry of the source.
Key:
[1] = Bodyweight change and food intake of db/db mice over the 28 day study (Example 1); format: in vivo; settings: male db/db mice, 10 mg/kg daily
Experimental: (§1) The phytocannabinoids CBD (10 mg/kg) and THCV (10 mg/kg) were tested along with AM 251 (10 mg/kg) which was used as a positive control.
(§2) On day 1 dosing commenced for groups A to D as outlined in Table 1.1 above. Animals were dosed daily at 17:00.

[2] = Blood samples for glucose and insulin in db/db mice (Example 1); format: in vivo
Experimental: as §1, §2

[3] = Oral glucose tolerance test in subjects with Type 2 diabetes at Visit 5 (Example 3 pilot study); format: in vivo, human; settings: 5 mg THCV twice daily, Visit 5 (Week 13), compared to placebo
Text: There were four arms in this study plus a placebo comparator. These were a 1:1 and 20:1 ratio of CBD:THCV, CBD alone and THCV alone. Assessment of the impact of each treatment on different parameters was made. Measurements were taken of high density lipoprotein (HDL) cholesterol, total cholesterol, low density lipoprotein (LDL) cholesterol, HDL/LDL ratio, serum triglycerides, apolipoprotein markers (Apo A & Apo B) and determination of ApoA/Apo B ratio.
(§3) Other measurements including: lipid parameters; glucose control (fasting plasma glucose, glucose tolerance, serum fructosamine, glycosylated haemoglobin A1c (HbA1c) (whole blood)); Insulin sensitivity (insulin resistance); body weight & body mass index (BMI); adipose tissue distribution (total % body fat content, waist circumference, neck circumference, waist-to-hip ratio, visceral adiposity, liver triglyceride content); and appetite 11 point numerical rating scale (0-10 NRS).
(§4) The study took place over 15-19 weeks (1-5 week baseline and 13 week treatment period and 1 week follow-up), and was a multicentre, randomised, double blind, placebo controlled, parallel group pilot study which evaluated the test compounds on lipid parameters in subjects with Type 2 diabetes.
Further study visits took place at the end of Week 4 of treatment (Visit 3, Day 29), and again at the end of treatment at Week 13 (Visit 5, Day 92). […]

[4] = tested on: Glucagon-Like Peptide 1 (GLP-1); assay: Serum glucagon-like peptide 1 (GLP-1) levels, change from baseline, subjects with Type 2 diabetes (Example 3); format: in vivo, human; settings: oral 5 mg THCV twice daily, FIG. 18
Text: Laboratory assessments included; physical examination; markers of vascular function; markers of adipocyte function including leptin and adiponectin; markers of inflammation including cytokines; retinol binding protein (RBP4) concentration; orexin type A (Orexin A) concentration; gut signalling hormone (Gastric Inhibitory Peptide (GIP), Glucagon-like peptide-1 (GLP-1), ghrelin) concentrations; ketone bodies; and endocannabinoid plasma levels.
as §4
(§5) Further study visits took place at the end of Week 4 of treatment (Visit 3, Day 29), and again at the end of treatment at Week 13 (Visit 5, Day 92). Subjects were asked to fast overnight before Visits 1 (or 1B), 2 and 5 (minimum 8 hours). A telephone assessment was also performed at Day 57 (Visit 4) and at Week 14 (Visit 6, Day 99) for safety follow-up.
As this was a pilot study, a formal sample size calculation was not required. Each treatment group consisted of 10 subjects. There was five treatment groups 1:1 and 20:1 ratio of CBD:THCV plus CBD alone, THCV alone and placebo.

[5] = target: CB-1 receptor (Homo sapiens, UniProt P21554); settings: receptor binding studies, GB 2434097; cited from earlier work
[6] = HOMA2 insulin sensitivity, change from baseline, subjects with Type 2 diabetes (Example 3); format: in vivo, human; settings: 5 mg THCV twice daily, end of study period, FIG. 16
Text: as §3, §4, §5
(§6) As this was a pilot study, a formal sample size calculation was not required. Each treatment group consisted of 10 subjects. There was five treatment groups 1:1 and 20:1 ratio of CBD:THCV plus CBD alone, THCV alone and placebo. […]

[7] = tested on: beta cell function; assay: HOMA2 beta cell function, change from baseline, subjects with Type 2 diabetes (Example 3); format: in vivo, human; settings: 5 mg THCV twice daily, end of study period, FIG. 17
Text: as §3, §4, §5, §6

[8] = tested on: pancreatic islet cells; assay: Histology/morphology of insulin-stained pancreas in diabetic db/db mice (Example 1); format: in vivo; settings: male db/db mice, 10 mg/kg daily
Experimental: as §1
At the start of the study the Group E animals were sacrificed and a terminal blood sample was taken. In addition four of the animals pancreases were sampled for determination of β-cell area, islet size and β-cell mass by […].
as §2
At the end of the study the animals were sacrificed and a terminal blood sample was taken. In addition four of the animals pancreases were sampled for determination of islet β-cell area, islet size and islet β-cell mass by […].
The pancreases were stained for insulin and the pancreatic islet cells were examined under a microscope to determine the amount of insulin in the cells.

CB-1 receptor, sequence (P21554 whole entry): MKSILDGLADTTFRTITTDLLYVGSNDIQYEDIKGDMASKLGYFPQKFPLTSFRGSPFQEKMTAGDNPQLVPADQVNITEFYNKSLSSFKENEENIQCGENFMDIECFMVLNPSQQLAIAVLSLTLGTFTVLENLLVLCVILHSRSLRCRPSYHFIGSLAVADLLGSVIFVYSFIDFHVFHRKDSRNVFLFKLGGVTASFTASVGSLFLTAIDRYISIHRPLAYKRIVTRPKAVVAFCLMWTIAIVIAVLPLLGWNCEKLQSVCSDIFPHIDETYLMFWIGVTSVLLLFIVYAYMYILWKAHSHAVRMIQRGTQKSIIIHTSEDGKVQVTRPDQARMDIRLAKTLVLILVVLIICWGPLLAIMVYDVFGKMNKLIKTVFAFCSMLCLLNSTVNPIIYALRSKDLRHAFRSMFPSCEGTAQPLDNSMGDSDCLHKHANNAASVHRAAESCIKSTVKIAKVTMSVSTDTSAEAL

SMILES | food intake [1] | weight gain (bodyweight change over the study period) ([1]; FIG. 6) | blood glucose concentration during a 24 hour period ([2]; male db/db mice, 10 mg/kg daily, FIG. 7) | reduction in blood glucose ([2]; male db/db mice, 10 mg/kg daily, conclusion of Example 1) | fasting insulin ([2]; rodent model of diabetes) | concentration of insulin during oral glucose tolerance test, mean change from baseline ([3]; FIG. 14) | concentration of blood glucose during oral glucose tolerance test, mean change from baseline ([3]; FIG. 15) | change from baseline in mean serum GLP-1 levels [4] | CB-1 receptor pharmacology [5] | HOMA2 insulin sensitivity, mean change from baseline [6] | HOMA2 beta cell function, mean change from baseline [7] | retention of insulin in the pancreatic islet (insulin staining, histology) ([8]; 28 day study, FIGS. 2-5, 10 mg/kg) | pancreatic islet beta cell mass (morphological analysis) ([8]; end of study, FIG. 8)
Cc1c(C(=O)NN2CCCCC2)nn(-c2ccc(Cl)cc2Cl)c1-c1ccc(I)cc1 [AM 251] | slightly lower |  |  |  |  |  |  |  |  |  |  |  | 
C=C(C)[C@@H]1CCC(C)=C[C@H]1c1c(O)cc(CCCCC)cc1O [CBD, cannabidiol] |  | increased weight gain |  |  |  |  |  |  |  |  |  |  | 
CCCc1cc(O)c2c(c1)OC(C)(C)[C@@H]1CCC(C)=C[C@@H]21 [THCV, Tetrahydrocannabivarin] | slightly lower |  | more controlled during a 24 hour period | without having a profound reduction in blood glucose | reduction in fasting insulin | increases over the first hour and then reduces down to the same level as the placebo after 2 hours | quickly reducing the blood glucose level compared to placebo | highest increase in GLP-1 | neutral antagonist | increased sensitivity to insulin | much increased beta cell function compared to all the other groups | greater retention of insulin in the pancreatic islet than both AM251 and CBD; also recorded: statistically more insulin present in the pancreatic islets | higher in the THCV treated animals than in the vehicle and CBD and AM251 treated groups

Source: patent publication US20160243075A2, “TETRAHYDROCANNABIVARIN (THC) FOR USE IN THE PROTECTION OF PANCREATIC ISLET CELLS” (GW Pharma Limited, priority 2014, published 2016)
